Patent publication US10273278B2, “Epitope recognized by anti-interferon gamma autoantibodies in patients with disseminated mycobacterial infections and the application therefor” (priority 2015, dated 2019)
Ends that are not written are not given here.

Experiments:
THP1 cells [1] = experiment: p-STAT1 in THP1 cells pre-incubated with sera of immunized rats and treated with IFNr; format: cell-based; settings: 50% sera
WKY/NcrlNarl rats = experiment: Immunization of rats with Noc2 or IFNr peptide conjugated with OVA; format: in vivo, rat; settings: 0.25 mg peptide-OVA, booster every two weeks
Method: The inventor immunized WKY/NcrlNarl rats with 0.25 mg Noc2 or IFNr[…] peptide (Noc2: […] (SEQ NO: 31); IFNr: […] (SEQ NO: 32)) conjugated with ovalbumin (OVA) and gave a booster dose every two weeks after the initial injection (day 0). After 70 days, the inventor checked the antibody production level by dot blot or ELISA at each injection. All rats were sacrificed ten days after the tenth injection (day 136) and whole blood was collected. After collection of the whole blood, the blood was allowed to clot by leaving it undisturbed at room temperature 15 minutes. Clots were removed by centrifuging at 1500 g for 10 minutes in a refrigerated centrifuge. Sera were aliquoted and stored at −20° C. for further use.
Blood sera from pre-immunized rats (n=6), Noc2 peptide-immunized rats (n=4) and Peptide 6-immunized rats (n=2) were mapped to control peptide, Peptide 6 and Noc2 peptide from Aspergillus terreus or Aspergillus fumigatus. This is represented as the mean optical density (OD) at 405 nm.

human IFNr = target: T1, human IFNr (Homo sapiens, UniProt P01579); experiment: Blocking of hIFNr detection by sera of immunized rats; format: binding; settings: sera incubated with 200 pg/mL of human IFNr
T1 sequence (P01579 24-166): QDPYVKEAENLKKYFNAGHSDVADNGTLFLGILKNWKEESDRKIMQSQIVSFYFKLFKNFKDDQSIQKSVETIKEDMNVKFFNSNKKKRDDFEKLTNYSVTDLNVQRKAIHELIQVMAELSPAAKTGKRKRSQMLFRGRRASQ
Method: Blood plasma from patients and donors was serially diluted (10^−1 to 10^−6) and incubated with recombinant human IFNr at a final concentration of 200 pg/mL for 1 hour at 37° C. The IFNr level was measured with a human IFNr ELISA kit from BD Biosciences according to the manufacturer's recommendations. All experiments were performed in duplicate.
However, blood sera from Noc2 peptide-immunized rats (n=4) and Peptide 6-immunized rats (n=2) at dilutions of up to 1/10^2 inhibited the detection of hIFNr.

anti-IFNr AutoAbs [2] = experiment: Immunoblotting (Western blot / dot blot) with patient or control plasma; format: binding, human; settings: plasma from healthy donors
Method: Recombinant IFNr[…] (R&D Systems) and different truncated forms of recombinant IFNr[…] were subjected to SDS-PAGE using a 10% gel under reducing conditions at 120 V for 2 hours. The proteins were transferred to a PVDF membrane (Invitrogen Life Technologies) at 250 mA for 2 hours. The membrane was blocked in 5% human normal serum albumin (Aventis) in TBS with 0.1% Tween 20 overnight at 4° C. The membrane was incubated with a 1/100 dilution of patient or control blood plasma for 3 hours at room temperature. After being washed three times, the membrane was incubated in a 1/10,000 dilution of mouse anti-human IgG conjugated with horseradish peroxidase (Jackson ImmunoResearch Laboratories) for 1 hour at room temperature. After being washed three times, the membrane was developed with ECL (Merck Millipore).
Plasma from 3 healthy donors had no response to either IFNr1-131 or EE-IFNr.

THP1 cells [3] = experiment: HLA-DR expression in THP1 cells; format: cell-based; settings: in the presence of anti-IFNr AutoAbs
IL-12p40 in whole blood = format: cell-based, human
anti-IFNr AutoAbs [4] = experiment: Protein mapping ELISA of recombinant IFNr proteins with blood plasma; format: binding, human; settings: patients' blood plasma, OD 405 nm
[5] = test system: HLA-DR expression in PBMCs; experiment: HLA-DR expression in PBMCs (CD14+ gated); format: cell-based, human; settings: IFNr AutoAbs patients' PBMCs pre-incubated with 10% autologous plasma
Method: A total of 10^6 PBMCs in 200 μL RPMI-1640 with 10% FBS and 1% penicillin/streptomycin was used. Cells were then stimulated with 500 IU IFNr, IFNr_1-131 or EE-IFNr⋅ in 160 μL RPMI-1640 pre-incubated with 40 μL of normal blood plasma or patient blood plasma for 10 min at room temperature. After 24 hours of stimulation in a 37° C. incubator, monocytes were identified by FITC-CD14 (BD Pharmingen) surface staining. Next, PE-HLA-DR antibody (BD Pharmingen) was added followed by 30 minutes of incubation on ice in the dark. Cells were again washed with 2 ml of PBS before resuspension in 500 μl of PBS. Data were collected with a FACSVerse flow cytometer (BD Biosciences) and analyzed using FACSuite software (BD Biosciences).
After being gated on the CD14^+, HLA-DR expression levels were determined by flow cytometry with the HLA-DR monoclonal antibody. Representative histograms (FIG. 4d(1)-FIG. 4d(2)) and MFI (median fluorescence intensity) (FIG. 4e) are shown.

p-STAT1 in whole blood = p-STAT1 in whole blood ex vivo; format: cell-based, human
Excerpt: Representative histograms (FIG. 4f(1)-FIG. 4f(2)) and MFI (median fluorescence intensity) (FIG. 4g) are shown.

p-STAT1 in PBMCs = experiment: p-STAT1 intracellular stain in PBMCs (CD14+ gated); format: cell-based, human
Method: A total of 10^6 PBMCs in 200 μL RPMI-1640 with 10% FBS and 1% penicillin/streptomycin was used. […] After 30 minutes of stimulation in a 37° C. incubator, monocytes were identified by FITC-CD14 (BD Pharmingen) surface staining. Fixed by adding 250 μL of FASC lysing solution (BD Pharmingen) and incubated at room temperature for 15 minutes in the dark, followed by two washes with PBS. To permeabilize the cells, 500 μl of ice-cold absolute methanol was added to each tube and incubated for 15 minutes on ice in the dark, followed by two washes with PBS. Next, PE-phospho-STAT1 (pY701) antibody (BD Pharmingen) was added, followed by 30 minutes incubation on ice in the dark. Again, cells were washed with 2 mL of PBS before resuspension in the 500 μL of PBS. Data were collected with a FACSVerse flow cytometer (BD Biosciences) and analyzed using FACSuite software (BD Biosciences).
Representative histograms (FIG. 2c(1)-FIG. 2c(2)) and MFI (median fluorescence intensity) (FIG. 2d) are shown.
After being gated on the CD14^+, p-STAT-1 levels were determined by flow cytometry with the p-STAT-1 monoclonal antibody. Representative histograms (FIG. 4a(1)-FIG. 4a(2)) and MFI (median fluorescence intensity) (FIG. 4b) are shown.

IL-12p40 in PBMCs = format: cell-based, human

Substance | p-STAT1 signaling after recombinant IFNr in presence of sera of immunized rats (THP1 cells [1]) | antibodies developed after immunization (WKY/NcrlNarl rats) | blocking of hIFNr detection by sera of immunized rats (serum dilution) (human IFNr) | binding of plasma from healthy controls in Western blot (anti-IFNr AutoAbs [2]) | HLA-DR expression (THP1 cells [3]) | IL-12p40 production restored (IL-12p40 in whole blood) | affinity of anti-IFNr AutoAbs by ELISA (anti-IFNr AutoAbs [4]) | HLA-DR expression levels restored / up-regulated [5] | p-STAT1 signaling restored / up-regulated (p-STAT1 in whole blood; IFNr AutoAbs patients' whole blood) | p-STAT1 signal (p-STAT1 in whole blood; controls' whole blood) | p-STAT1 signaling restored / up-regulated (p-STAT1 in PBMCs; IFNr AutoAbs patients' PBMCs pre-incubated with 10% autologous blood plasma) | phosphorylation of STAT1 (p-STAT1 in PBMCs; controls' PBMCs pre-incubated with 20% blood plasma with anti-IFNr AutoAbs from patients) | p-STAT1 signaling (p-STAT1 in PBMCs; controls' PBMCs, 20% control blood plasma) | IL-12p40 expression (IL-12p40 in PBMCs) | IL-12p40 production restored (IL-12p40 in PBMCs)
CAAKTGKRKRSQM (also: conjugated to ovalbumin; UniProt P01579 146-157, looked up, fragment) | decreased up-regulation of p-STAT1 signaling | developed antibodies to human IFNr, which could cross-react with Aspergillus Noc2 | can block human recombinant IFNr | – | – | – | – | – | – | – | – | – | – | – | –
EE-IFNr: IFNr_1-131 protein with human P121-127 SPAAKTG sequence substituted with murine LPESSLR sequence (SEQ NO: 1) (listed as Mus musculus) | – | – | – | no response | up-regulation of HLA-DR expression | three of six | markedly decreased in comparison with wild type (WT) IFNr_1-131 | four of six | four of six | up-regulated | four of six | could induce the phosphorylation of STAT1 | Up-regulation of the p-STAT1 signaling was observed | did restore IL-12p40 expression | three of six
